Results as given in patent US12226401B2, “Molecular genetic approach to treatment and diagnosis of alcohol and drug dependence” (priority 2010, dated 2025).

System: alcohol dependent individuals
Test: Randomized, double-blind, placebo-controlled, 12-week clinical trial of ondansetron vs placebo in alcohol dependent individuals by genotype: drinks per drinking day (DDD)
Format: in vivo, human
Conditions: for Drinks per Drinking Days, Least Squares Mean (Estimated Mean): OND
Protocol: Two hundred and seventy eight male and female alcohol dependent individuals were entered into a randomized, double-blind, placebo-controlled, 12-week clinical trial. These individuals were divided into TT vs. […] The polymorphisms in 3''-UTR region of a gene may affect mRNA expression levels by altering their stability. […] Data was transformed to its natural log to correct for skewness. […] In total, ten SNPs in 5HT3a and nine SNPs in 5HT3b genes were analyzed in this study: […]

For `Cc1nccn1CC1CCc2c(c3ccccc3n2C)C1=O` (stereo not drawn) [ondansetron, 9-methyl-3-[(2-methyl-1H-imidazol-1-yl)methyl]-1,2,3,9-tetrahydrocarbazol-4-one], the “Estimate, OND vs. Placebo, drinks per drinking days (DDD)” value (AA or AC (RS1176719, RS17614942)) was −2.83 DDD, the “Estimate, OND vs. Placebo, drinks per drinking days (DDD)” value (AG or AC (RS1150226, RS17614942)) was −2.12 DDD and the “Estimate, OND vs. Placebo, drinks per drinking days (DDD)” value (AG or GG (RS1150226, RS1176713)) was −2.43 DDD. For the same compound, the “Least Squares Mean Difference, Drinks per Drinking Days, OND vs. Placebo” value (Among Comb (LL + TT or AC or AG)) was −1.75, the “Least Squares Mean Difference, Drinks per Drinking Days, Comb vs. Others” value (Among OND, Comb = LL + TT or AC or AG) was −2.21 and the “Least Squares Mean Difference, Drinks per Drinking Days, AG/AA vs. GG” value (Among OND, RS1150226) was −1.91. The “Least Squares Mean Difference, Drinks per Drinking Days, AC/AA vs. CC” value (Among OND, RS17614942) was −2.13, the “Least Squares Mean Difference, Drinks per Drinking Days, AC/AA vs. CC” value (Among OND, model RS17614942 (CC/AA, AC), Table 2G) was −2.22 and the “Least Squares Mean Difference, Drinks per Drinking Days, OND vs. Placebo” value (Among RS1150226 AG/AA) was −1.80. For the same compound, the “Least Squares Mean Difference, Drinks per Drinking Days, OND vs. Placebo” value (Among RS17614942 AC/AA) was −2.51, the “Least Squares Mean, Drinks per Drinking Days” value (Comb (LL + TT or AC or AG)) was 4.21 and the “Estimate, OND vs. Placebo, drinks per drinking days (DDD)” value (GG or AC (RS1176713, RS17614942)) was −3.08 DDD. The “Estimate, OND vs. Placebo, drinks per drinking days (DDD)” value (LL + AA (5-HTTLPR, RS1176719)) was −5.22 DDD, the “Estimate, OND vs. Placebo, drinks per drinking days (DDD)” value (LL + AA + AC (5-HTTLPR, RS1176719, RS17614942)) was −5.96 DDD and the “Estimate, OND vs. Placebo, drinks per drinking days (DDD)” value (LL + AC (5-HTTLPR, RS17614942)) was −4.24 DDD. For the same compound, the “Estimate, OND vs. Placebo, drinks per drinking days (DDD)” value (LL + AG (5-HTTLPR, RS1150226)) was −3.06 DDD, the “Estimate, OND vs. Placebo, drinks per drinking days (DDD)” value (LL + AG + AC (5-HTTLPR, RS1150226, RS17614942)) was −4.09 DDD and the “Drinks per Drinking Days, Least Squares Estimated Mean Difference” value (LL + CT/TT: OND vs. Placebo, simplified model) was −1.55. For the same compound, the “Estimate, OND vs. Placebo, drinks per drinking days (DDD)” value (LL + GG (5-HTTLPR, RS1176713)) was −4.48 DDD, the “Estimate, OND vs. Placebo, drinks per drinking days (DDD)” value (LL + TT (5-HTTLPR, RS1042173)) was −2.08 DDD and the “Estimate, OND vs. Placebo, drinks per drinking days (DDD)” value (LL + TT + AA (5-HTTLPR, RS1042173, RS1176719)) was −8.50 DDD. The “Estimate, OND vs. Placebo, drinks per drinking days (DDD)” value (LL or AA or AC (5-HTTLPR, RS1176719, RS17614942)) was −1.55 DDD, the “Estimate, OND vs. Placebo, drinks per drinking days (DDD)” value (LL or AC (5-HTTLPR, RS17614942)) was −1.53 DDD and the “Estimate, OND vs. Placebo, drinks per drinking days (DDD)” value (LL or AG (5-HTTLPR, RS1150226)) was −1.37 DDD. The “Estimate, OND vs. Placebo, drinks per drinking days (DDD)” value (LL or AG or AC (5-HTTLPR, RS1150226, RS17614942)) was −1.43 DDD, the “Estimate, OND vs. Placebo, drinks per drinking days (DDD)” value (LL or GG (5-HTTLPR, RS1176713)) was −1.60 DDD and the “Estimate, OND vs. Placebo, drinks per drinking days (DDD)” value (LL or GG or AC (5-HTTLPR, RS1176713, RS17614942)) was −1.57 DDD. The “Estimate, OND vs. Placebo, drinks per drinking days (DDD)” value (LL or TT (5-HTTLPR, RS1042173)) was −0.87 DDD, the “Estimate, OND vs. Placebo, drinks per drinking days (DDD)” value (LL or TT or AA (5-HTTLPR, RS1042173, RS1176719)) was −0.99 DDD and the “Estimate, OND vs. Placebo, drinks per drinking days (DDD)” value (LL or TT or AA or AC (5-HTTLPR, RS1042173, RS1176719, RS17614942)) was −1.02 DDD. The “Estimate, OND vs. Placebo, drinks per drinking days (DDD)” value (LL or TT or AC (5-HTTLPR, RS1042173, RS17614942)) was −0.97 DDD, the “Estimate, OND vs. Placebo, drinks per drinking days (DDD)” value (LL or TT or AG (5-HTTLPR, RS1042173, RS1150226)) was −0.94 DDD and the “Estimate, OND vs. Placebo, drinks per drinking days (DDD)” value (LL or TT or AG or AC (5-HTTLPR, RS1042173, RS1150226, RS17614942)) was −0.93 DDD. The “Estimate, OND vs. Placebo, drinks per drinking days (DDD)” value (LL or TT or GG (5-HTTLPR, RS1042173, RS1176713)) was −0.94 DDD, the “Reduction of DDD by ondansetron, carriers vs non-carriers of genotype combination” value (LL+AC/AA (5HTTLPR + rs17614942)) was 3.33 sd and the “Reduction of DDD by ondansetron, carriers vs non-carriers of genotype combination” value (LL+CT/TT (5HTTLPR + rs4938056)) was 1.82 sd. The “Drinks per Drinking Days, Least Squares Estimated Mean Difference” value (OND vs. Placebo, all genotypes, model RS17614942) was −0.96, the “Drinks per Drinking Days, Least Squares Estimated Mean Difference” value (OND vs. Placebo, all genotypes, model RS17614942 and 5-HTTLPR) was −1.13 and the “Drinks per Drinking Days, Least Squares Mean (Estimated Mean)” value (5-HTTLPR LL, model 5-HTTLPR and RS1062613) was 4.80. For the same compound, the “Drinks per Drinking Days, Least Squares Mean (Estimated Mean)” value (5-HTTLPR LL, model 5-HTTLPR and RS1150226) was 4.59, the “Drinks per Drinking Days, Least Squares Mean (Estimated Mean)” value (5-HTTLPR LL, model RS4938056 and 5-HTTLPR) was 5.18 and the “Drinks per Drinking Days, Least Squares Mean (Estimated Mean)” value (5-HTTLPR LL, model RS17614942 and 5-HTTLPR) was 4.43. For the same compound, the “Drinks per Drinking Days, Least Squares Mean (Estimated Mean)” value (5-HTTLPR LS/SS, model 5-HTTLPR and RS1062613) was 6.19, the “Drinks per Drinking Days, Least Squares Mean (Estimated Mean)” value (5-HTTLPR LS/SS, model 5-HTTLPR and RS1150226) was 5.86 and the “Drinks per Drinking Days, Least Squares Mean (Estimated Mean)” value (5-HTTLPR LS/SS, model RS4938056 and 5-HTTLPR) was 6.54. The “Drinks per Drinking Days, Least Squares Mean (Estimated Mean)” value (5-HTTLPR LS/SS, model RS17614942 and 5-HTTLPR) was 5.76, the “Drinks per Drinking Days, Least Squares Mean (Estimated Mean)” value (LL + CT/TT, simplified model) was 4.61 and the “Drinks per Drinking Days, Least Squares Mean (Estimated Mean)” value (Others (not LL + CT/TT), simplified model) was 6.25. For the same compound, the “Drinks per Drinking Days, Least Squares Mean (Estimated Mean)” value (RS1062613 TC/CC, model 5-HTTLPR and RS1062613) was 4.98, the “Drinks per Drinking Days, Least Squares Mean (Estimated Mean)” value (RS1062613 TC/CC, model RS1062613) was 5.13 and the “Drinks per Drinking Days, Least Squares Mean (Estimated Mean)” value (RS1062613 TT, model 5-HTTLPR and RS1062613) was 6.02. The “Drinks per Drinking Days, Least Squares Mean (Estimated Mean)” value (RS1062613 TT, model RS1062613) was 6.19, the “Drinks per Drinking Days, Least Squares Mean (Estimated Mean)” value (RS1150226 AG/AA, model 5-HTTLPR and RS1150226) was 4.60 and the “Drinks per Drinking Days, Least Squares Mean (Estimated Mean)” value (RS1150226 AG/AA, model RS1150226) was 4.58. For the same compound, the “Drinks per Drinking Days, Least Squares Mean (Estimated Mean)” value (RS1150226 GG, model 5-HTTLPR and RS1150226) was 5.85, the “Drinks per Drinking Days, Least Squares Mean (Estimated Mean)” value (RS1150226 GG, model RS1150226) was 6.04 and the “Drinks per Drinking Days, Least Squares Mean (Estimated Mean)” value (RS4938056 CC, model RS4938056) was 6.67. For the same compound, the “Drinks per Drinking Days, Least Squares Mean (Estimated Mean)” value (RS4938056 CC, model RS4938056 and 5-HTTLPR) was 6.42, the “Drinks per Drinking Days, Least Squares Mean (Estimated Mean)” value (RS4938056 CT/TT, model RS4938056) was 5.43 and the “Drinks per Drinking Days, Least Squares Mean (Estimated Mean)” value (RS4938056 CT/TT, model RS4938056 and 5-HTTLPR) was 5.29. For the same compound, the “Drinks per Drinking Days, Least Squares Mean (Estimated Mean)” value (RS17614942 AC/AA, model RS17614942) was 4.40, the “Drinks per Drinking Days, Least Squares Mean (Estimated Mean)” value (RS17614942 AC/AA, model RS17614942 and 5-HTTLPR) was 4.37 and the “Drinks per Drinking Days, Least Squares Mean (Estimated Mean)” value (RS17614942 CC, model RS17614942) was 6.00. For the same compound, the “Drinks per Drinking Days, Least Squares Mean (Estimated Mean)” value (RS17614942 CC, model RS17614942 and 5-HTTLPR) was 5.82, the “Drinks per Drinking Days, Least Squares Mean (Estimated Mean)” value (all genotypes, model 5-HTTLPR and RS1062613) was 5.50 and the “Drinks per Drinking Days, Least Squares Mean (Estimated Mean)” value (all genotypes, model 5-HTTLPR and RS1150226) was 5.23. For the same compound, the “Drinks per Drinking Days, Least Squares Mean (Estimated Mean)” value (all genotypes, model RS1062613) was 5.66, the “Drinks per Drinking Days, Least Squares Mean (Estimated Mean)” value (all genotypes, model RS1150226) was 5.31 and the “Drinks per Drinking Days, Least Squares Mean (Estimated Mean)” value (all genotypes, model RS4938056) was 6.05. For the same compound, the “Drinks per Drinking Days, Least Squares Mean (Estimated Mean)” value (all genotypes, model RS4938056 and 5-HTTLPR) was 5.86, the “Drinks per Drinking Days, Least Squares Mean (Estimated Mean)” value (all genotypes, model RS17614942) was 5.20 and the “Drinks per Drinking Days, Least Squares Mean (Estimated Mean)” value (all genotypes, model RS17614942 and 5-HTTLPR) was 5.09. The “Drinks per Drinking Days, Least Squares Mean (Estimated Mean)” value (all genotypes, simplified model, combined genotype LL + CT/TT vs Others) was 5.43, the “Least Squares Mean, Drinks per Drinking Days” value (Others (not LL + TT or AC or AG)) was 6.42 and the “Estimate, OND vs. Placebo, drinks per drinking days (DDD)” value (RS1042173 (TT)) was −0.86 DDD. The “Least Squares Mean, Drinks per Drinking Days” value (RS1150226 AG (as printed, Table 3F)) was 6.08, the “Least Squares Mean, Drinks per Drinking Days” value (RS1150226 AG/AA) was 4.20 and the “Least Squares Mean, Drinks per Drinking Days” value (RS1150226 GG) was 6.11. The “Least Squares Mean, Drinks per Drinking Days” value (RS1150226 GG/AA (as printed, Table 3F)) was 4.19, the “Least Squares Mean, Drinks per Drinking Days” value (RS17614942 AC) was 3.87 and the “Least Squares Mean, Drinks per Drinking Days” value (RS17614942 AC/AA) was 3.90.
